Test results published in EP0970046B1, “N-HYDROXY-2-(ALKYL, ARYL, OR HETEROARYL SULFANYL, SULFINYL OR SULFONYL)-3-SUBSTITUTED ALKYL, ARYL OR HETEROARYLAMIDES AS MATRIX METALLOPROTEINASE INHIBITORS” (Wyeth Holdings Corporation, priority 1997, dated 1998).
Where two headings read alike, the source gives them in different places.

Experiments:
Format in all cases: biochemical
[1] = target: T1, TACE (Homo sapiens, UniProt P78536); experiment: Procedure for Measuring TACE Inhibition; conditions: for inhibition at 1 µM: read-out: TACE % inhibition at 1 micromolar; for IC50: read-out: TACE IC 50
T1 construct: purchased Immunex
T1 sequence (P78536 215-824): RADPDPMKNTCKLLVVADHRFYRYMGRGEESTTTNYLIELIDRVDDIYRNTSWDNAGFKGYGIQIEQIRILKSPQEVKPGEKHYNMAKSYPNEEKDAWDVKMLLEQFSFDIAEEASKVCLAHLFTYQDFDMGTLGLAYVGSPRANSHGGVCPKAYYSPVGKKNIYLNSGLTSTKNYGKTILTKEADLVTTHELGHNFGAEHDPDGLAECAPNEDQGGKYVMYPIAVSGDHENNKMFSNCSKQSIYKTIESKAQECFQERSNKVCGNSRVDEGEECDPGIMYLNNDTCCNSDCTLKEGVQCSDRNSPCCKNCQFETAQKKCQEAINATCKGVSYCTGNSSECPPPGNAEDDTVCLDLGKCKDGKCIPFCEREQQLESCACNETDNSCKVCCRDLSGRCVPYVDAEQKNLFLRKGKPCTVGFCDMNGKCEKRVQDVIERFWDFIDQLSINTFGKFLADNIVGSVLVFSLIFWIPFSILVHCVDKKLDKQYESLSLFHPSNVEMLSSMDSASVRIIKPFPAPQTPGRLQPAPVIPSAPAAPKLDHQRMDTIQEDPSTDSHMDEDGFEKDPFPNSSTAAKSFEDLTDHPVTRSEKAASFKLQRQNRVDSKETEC
Method in brief: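 Single-concentration screen: test compound at 1 µM final, 10-min room-temperature preincubation with 1 µg/mL protease in Tris pH 7.4 buffer containing glycerol. Initial rate from linear fluorescence increase (340/420 nm) over 10 min after adding 100 µM peptidyl substrate; significance versus control rate by Dunnett's test.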

[2] = target: MMP 13 (Homo sapiens, UniProt P45452); experiment: MMP 13 inhibition (IC50 / manual assay; method not described); conditions: for inhibition at 1 µM: read-out: MMP 13 % inhibition at 1 micromolar
[3] = target: T2, MMP 9 (Homo sapiens, UniProt P14780); experiment: In Vitro Gelatinase Assay; conditions: human neutrophil gelatinase B; for inhibition at 1 µM: read-out: MMP 9 % inhibition at 1 micromolar, 1 micromolar; for IC50: read-out: MMP 9 IC 50
T2 construct: from tissue; host or cells: human neutrophils
T2 sequence (P14780 94-707): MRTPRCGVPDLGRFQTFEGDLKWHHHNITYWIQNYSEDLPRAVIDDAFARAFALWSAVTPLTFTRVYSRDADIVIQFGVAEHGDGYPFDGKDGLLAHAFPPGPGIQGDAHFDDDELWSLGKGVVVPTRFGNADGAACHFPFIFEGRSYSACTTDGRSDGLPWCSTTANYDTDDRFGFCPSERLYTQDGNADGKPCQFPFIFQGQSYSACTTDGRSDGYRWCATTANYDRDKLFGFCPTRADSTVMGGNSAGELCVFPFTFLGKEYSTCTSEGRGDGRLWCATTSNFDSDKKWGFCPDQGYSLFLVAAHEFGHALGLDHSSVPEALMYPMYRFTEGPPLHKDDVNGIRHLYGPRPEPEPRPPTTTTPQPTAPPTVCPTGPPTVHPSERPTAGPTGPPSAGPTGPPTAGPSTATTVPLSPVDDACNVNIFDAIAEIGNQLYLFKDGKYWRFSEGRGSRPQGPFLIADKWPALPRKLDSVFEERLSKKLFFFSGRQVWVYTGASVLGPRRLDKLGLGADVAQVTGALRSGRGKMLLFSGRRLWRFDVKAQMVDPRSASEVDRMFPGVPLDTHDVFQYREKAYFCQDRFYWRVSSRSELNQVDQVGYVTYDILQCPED
Method in brief: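 Human MMP-9 cleaves thiopeptide Ac-Pro-Leu-Gly(2-mercapto-4-methyl-pentanoyl)-Leu-Gly-OEt, with the released thiol reacting with DTNB. Substrate and DTNB were diluted together to 1 mM in 50 mM HEPES pH 7.5, 5 mM CaCl2. Rate came from the OD405 slope (r^2 >0.85), compared with control by Dunnett's test.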

[4] = target: T3, MMP 1 (Homo sapiens, UniProt P03956); experiment: In Vitro Collagenase Assay; conditions: for inhibition at 1 µM: read-out: MMP 1 % inhibition at 1 micromolar, 1 micromolar
T3 construct: human recombinant fibroblast collagenase (truncated, mw= 18,828, WAR, Radnor)
T3 sequence (P03956 100-269 limits assumed): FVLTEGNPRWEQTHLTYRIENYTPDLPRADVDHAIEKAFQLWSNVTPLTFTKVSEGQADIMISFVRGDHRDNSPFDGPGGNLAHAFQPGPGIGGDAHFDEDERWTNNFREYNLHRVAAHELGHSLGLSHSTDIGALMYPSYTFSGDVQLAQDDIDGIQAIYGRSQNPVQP
Method in brief: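 Collagenase (5 nM final) cleaves the quenched fluorogenic peptide Dnp-Pro-Cha-Gly-Cys(Me)-His-Ala-Lys(NMa)-NH2 (10 µM final) in HCBC buffer. Solvent is below 1.0%, and the reaction is started with substrate. Rate is taken from the fluorescence slope (r^2 >0.85), and drug-treated rates are compared with control by Dunnett's test.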

[5] = human recombinant fibroblast collagenase
[6] = human recombinant fibroblast collagenase, read-out: MMP 1 IC 50

## Cn1ccnc1S(=O)(=O)C(C)(Cc1ccc(-c2ccccc2)cc1)C(=O)NO (centres unmarked) [Example 47, 3-Biphenyl-4-yl-2-methyl-2-(1-methyl-1H-imidazole-2-sulfonyl)-propionic acid hydroxyamide]
[1]
  inhibition at 1 µM: 3.3%
[2]
  inhibition at 1 µM: 7.12%
[3]
  inhibition at 1 µM: 12.9%
[4]; [5]
  inhibition at 1 µM: 17.1%

## CC(Cc1ccccc1)(C(=O)NO)S(=O)(=O)c1cccs1 (centres unmarked) [Example 48, 2-Methyl-3-phenyl-2-(thiophene-2-sulfonyl)-propionic acid hydroxamide]
[1]
  inhibition at 1 µM: 51.1%
[2]; 1 micromolar
  MMP 13 % inhibition at 1 micromolar: 85.4%
[3]
  inhibition at 1 µM: 79.1%
[4]; [5]
  inhibition at 1 µM: 99.1%

## COc1ccc(S(=O)(=O)C(C)(Cc2ccc(Br)cc2)C(=O)NO)cc1 (centres unmarked) [Example 51, 3-(4-Bromo-phenyl)-N-hydroxy-2-(4-methoxy-benzenesulfonyl)-2-methyl-propionamide]
[1]
  inhibition at 1 µM: 48.1%
[2]; read-out: MMP 13 IC 50
  IC50: 0.0131 µM
[3]
  IC50: 0.0104 µM
[4]; [6]
  IC50: 0.178 µM

## COc1ccc(S(=O)(=O)C2(C(=O)NO)CCCC2)cc1 [Example 54, 1-(4-Methoxy-benzenesulfonyl)-cyclopentanecarboxylic acid hydroxyamide]
[1]
  inhibition at 1 µM: 55.1%
[2]; read-out: MMP 13 IC 50
  IC50: 0.021 µM
[3]
  IC50: 0.066 µM
[4]; [6]
  IC50: 0.11 µM

## COc1ccc(S(=O)(=O)C(C)(Cc2ccccc2Br)C(=O)NO)cc1 (centres unmarked) [Example 55, 3-(2-Bromo-phenyl)-N-hydroxy-2-(4-methoxy-benzenesulfonyl)-2-methyl-propionamide]
[1]
  inhibition at 1 µM: 21.7%
[2]; read-out: MMP 13 IC 50
  IC50: 0.007 µM
[3]
  IC50: 0.01 µM
[4]; [6]
  IC50: 0.303 µM

## COc1ccc(S(=O)(=O)C(C)(CC=Cc2ccccc2)C(=O)NO)cc1 (centres unmarked) [Example 56, 2-(4-methoxy-benzenesulfonyl)-2-methyl-5-phenyl-pent-4-enoic acid hydroxyamide]
[1]
  inhibition at 1 µM: 65%
[2]
  IC50: 0.012 µM
[3]
  IC50: 0.016 µM
[4]; [6]
  IC50: 0.299 µM

## COc1ccc(S(=O)(=O)C(CCCc2ccccc2)(CCCc2ccccc2)C(=O)NO)cc1 [Example 57, 2-(4-methoxy-benzenesulfonyl)-5-phenyl-2-(3-phenyl-propyl)-pentanoic acid hydroxyamide]
[1]
  inhibition at 1 µM: 16.6%
[2]; read-out: MMP 13 IC 50
  IC50: 0.191 µM
[3]
  IC50: 0.332 µM
[4]; [6]
  IC50: 0.258 µM

## COc1ccc(S(=O)(=O)C(CC=C(C)C)(Cc2cccnc2)C(=O)NO)cc1 (centres unmarked) [Example 63, 2-(4-Methoxy-benzenesulfonyl)-5-methyl-2-pyridin-3-ylmethyl-hex-4-enoic acid hydroxyamide]
[1]
  IC50: 0.203 µM
[2]
  IC50: 0.003 µM
[3]
  IC50: 0.009 µM
[4]; [6]
  IC50: 0.156 µM

## COc1ccc(S(=O)(=O)C(CCN(C(C)C)C(C)C)(Cc2ccccc2)C(=O)NO)cc1 (centres unmarked) [Example 64, 2-Benzyl-4-diisopropylamino-N-hydroxy-2-(4-methoxy-benzenesulfonyl)-butyramide]
[1]
  inhibition at 1 µM: 29.7%
[2]
  inhibition at 1 µM: 36.7%
[3]
  inhibition at 1 µM: 25.6%
[4]; [5]
  inhibition at 1 µM: 40.9%

## COc1ccc(S(=O)(=O)C(Cc2cccnc2)(CC2CCCCC2)C(=O)NO)cc1 (centres unmarked) [Example 65, 3-Cyclohexyl-N-hydroxy-2-(4-methoxy-benzenesulfonyl)-2-pyridin-3-ylmethyl-propionamide]
[1]
  inhibition at 1 µM: 42.2%
[2]; read-out: MMP 13 IC 50
  IC50: 0.013 µM
[3]
  IC50: 0.063 µM
[4]; [6]
  IC50: 1 µM

## COc1ccc(S(=O)(=O)C(Cc2cccnc2)(CC(C)C)C(=O)NO)cc1 (centres unmarked) [Example 66, 2-(4-Methoxy-benzenesulfonyl)-4-methyl-2-pyridin-3-ylmethyl-pentanoic acid hydroxyamide]
[1]
  inhibition at 1 µM: 42.3%
[2]; read-out: MMP 13 IC 50
  IC50: 0.226 µM
[3]
  IC50: 0.131 µM
[4]; [6]
  IC50: 1.6 µM

## CCCCCC#CCC(CC#CCCCCC)(C(=O)NO)S(=O)(=O)c1ccc(OC)cc1 [Example 71, 2-(4-methoxy-benzenesulfonyl)-2-oct-2-ynyl-dec-4-ynoic acid hydroxyamide]
[1]
  inhibition at 1 µM: 42.2%
[2]; read-out: MMP 13 IC 50
  IC50: 0.013 µM
[3]
  IC50: 0.063 µM
[4]; [6]
  IC50: 1 µM

## CC#CCC(CC#CC)(C(=O)NO)S(=O)(=O)c1ccc(OC)cc1 [Example 72, 2-(4-Methoxy-benzenesulfonyl)-2-but-2-ynyl-hex-4-ynoic acid hydroxyamide]
[1]
  inhibition at 1 µM: 51.6%
[2]; read-out: MMP 13 IC 50
  IC50: 0.001 µM
[3]
  IC50: 0.011 µM
[4]; [6]
  IC50: 0.117 µM

## CCCCCC#CCC(Cc1cccnc1)(C(=O)NO)S(=O)(=O)c1ccc(OC)cc1 (centres unmarked) [Example 74, 2-(4-Methoxy-benzenesulfonyl)-2-pyridin-3-ylmethyl-dec-4-ynoic acid hydroxyamide]
[1]
  inhibition at 1 µM: 47.9%
[2]; read-out: MMP 13 IC 50
  IC50: 0.0043 µM
[3]
  IC50: 0.0092 µM
[4]; [6]
  IC50: 0.138 µM

## C#CCC(Cc1cccnc1)(C(=O)NO)S(=O)(=O)c1ccc(OC)cc1 (centres unmarked) [Example 75, 2-(4-Methoxy-benzenesulfonyl)-2-pyridin-3-ylmethyl-pent-4-ynoic acid hydroxyamide]
[1]
  inhibition at 1 µM: 23.8%
[2]; read-out: MMP 13 IC 50
  IC50: 0.0327 µM
[3]
  IC50: 0.0834 µM
[4]; [6]
  IC50: 0.672 µM

## CCCCCC(Sc1ccc(OC)cc1)C(=O)NO (centres unmarked) [Example 80, 2-(4-methoxy-phenylsulfanyl)-heptanoic acid hydroxyamide]
[1]
  IC50: 0.191 µM
[2]
  inhibition at 1 µM: 63.6%
[3]
  inhibition at 1 µM: 26%
[4]; [5]
  inhibition at 1 µM: 22.1%

## COc1ccc(S(=O)(=O)C2(C(=O)NO)CCN(Cc3ccccc3)CC2)cc1 [Example 83, 1-Benzyl-4-(4-methoxy-benzenesulfonyl)-piperidine-4-carboxylic Acid hydroxyamide]
[1]
  IC50: 0.229 µM
[2]; read-out: MMP 13 IC 50
  IC50: 0.002 µM
[3]
  IC50: 0.0102 µM
[4]; [6]
  IC50: 0.492 µM

## COc1ccc(S(=O)(=O)C2(C(=O)NO)CCN(Cc3cccc(OC)c3)CC2)cc1 [Example 84, 4-(4-methoxy-benzenesulfonyl)-1-(3-methoxy-benzyl)-piperidine-4-carboxylic acid hydroxyamide]
[1]
  IC50: 0.213 µM
[2]; read-out: MMP 13 IC 50
  IC50: 0.002 µM
[3]
  IC50: 0.0088 µM
[4]; [6]
  IC50: 0.519 µM

## COc1ccc(S(=O)(=O)C2(C(=O)NO)CCN(Cc3ccc(Cl)c(Cl)c3)CC2)cc1 [Example 85, 1-(3,4-dichlorobenzyl) -4-(4-methoxy-benzenesulfonyl)-piperidine-4-carboxylic acid hydroxamide]
[1]
  IC50: 0.115 µM
[2]; read-out: MMP 13 IC 50
  IC50: 0.0015 µM
[3]
  IC50: 0.0058 µM
[4]; [6]
  IC50: 0.45 µM

## COc1ccc(S(=O)(=O)C2(C(=O)NO)CCN(Cc3ccc(C)cc3)CC2)cc1 [Example 86, 4-(4-methoxy-benzenesulfonyl)-1-(4-methylbenzyl)-piperidine-4-carboxylic acid hydroxamide]
[1]
  IC50: 0.222 µM
[2]; read-out: MMP 13 IC 50
  IC50: 0.0015 µM
[3]
  IC50: 0.0168 µM
[4]; [6]
  IC50: 0.494 µM

## COc1ccc(S(=O)(=O)C2(C(=O)NO)CCN(CC=C(C)C)CC2)cc1 [Example 89, 4-(4-methoxy-benzene-sulfonyl)-1-(3-methyl-but-2-enyl)piperidine-4-carboxylic acid hydroxamide]
[1]
  inhibition at 1 µM: 49%
[2]; read-out: MMP 13 IC 50
  IC50: 0.007 µM
[3]
  IC50: 0.0386 µM
[4]; [6]
  IC50: 1.39 µM

## COc1ccc(S(=O)(=O)C2(C(=O)NO)CCN(Cc3ccc(F)cc3)CC2)cc1 [Example 99, 1-(4-Fluoro-benzyl)-4-(4-methoxy-benzenesulfonyl)-piperidine-4-carboxylic acid hydroxyamide]
[1]
  IC50: 0.25 µM
[2]; read-out: MMP 13 IC 50
  IC50: 0.0024 µM
[3]
  IC50: 0.0162 µM
[4]; [6]
  IC50: 0.656 µM

## COc1ccc(CCN2CCC(C(=O)NO)(S(=O)(=O)c3ccc(OC)cc3)CC2)cc1 [Example 102, 4-(4-methoxy-benzenesulfonyl)-1-[2-(4-methoxyphenyl)-ethyl]-piperidine-4-carboxylic acid hydroxyamide]
[1]
  inhibition at 1 µM: 53%
[2]
  IC50: 0.0019 µM
[3]
  IC50: 0.0337 µM
[4]; [6]
  IC50: 0.662 µM

## COc1ccc(S(=O)(=O)C2(C(=O)NO)CCN(CCCOc3ccccc3)CC2)cc1 [Example 105, 4-(4-Methoxy-benzenesulfonyl)-1-(3-phenoxy-propyl)-piperidine-4-carboxylic acid hydroxyamide]
[1]
  inhibition at 1 µM: 50.2%
[2]; read-out: MMP 13 IC 50
  IC50: 0.0041 µM
[3]
  IC50: 0.0442 µM
[4]; [6]
  IC50: 1.21 µM

## COc1ccc(S(=O)(=O)C2(C(=O)NO)CCN(CCOc3ccccc3)CC2)cc1 [Example 107, 4-(4-methoxy-benzenesulfonyl)-1-(2-phenoxy-ethyl)-piperidine-4-carboxylic acid hydroxyamide]
[1]
  IC50: 0.293 µM
[2]; read-out: MMP 13 IC 50
  IC50: 0.0025 µM
[3]
  IC50: 0.0268 µM
[4]; [6]
  IC50: 0.629 µM

## COc1ccc(S(=O)(=O)C2(C(=O)NO)CCN(Cc3ccc(OCCN4CCCCC4)cc3)CC2)cc1 [Example 109, 4-(4-Methoxy-benzenesulfonyl)-1-[4-(2-piperidin-1-yl-ethoxy)-benzyl]-piperidine-4-carboxylic acid hydroxyamide]
[1]
  IC50: 0.386 µM
[2]; read-out: MMP 13 IC 50
  IC50: 0.0025 µM
[3]
  IC50: 0.0027 µM
[4]
  IC50: 0.393 µM
